One assay concerns the target T1, Peregrin (Homo sapiens, UniProt P55201).
T1 sequence (P55201 whole entry): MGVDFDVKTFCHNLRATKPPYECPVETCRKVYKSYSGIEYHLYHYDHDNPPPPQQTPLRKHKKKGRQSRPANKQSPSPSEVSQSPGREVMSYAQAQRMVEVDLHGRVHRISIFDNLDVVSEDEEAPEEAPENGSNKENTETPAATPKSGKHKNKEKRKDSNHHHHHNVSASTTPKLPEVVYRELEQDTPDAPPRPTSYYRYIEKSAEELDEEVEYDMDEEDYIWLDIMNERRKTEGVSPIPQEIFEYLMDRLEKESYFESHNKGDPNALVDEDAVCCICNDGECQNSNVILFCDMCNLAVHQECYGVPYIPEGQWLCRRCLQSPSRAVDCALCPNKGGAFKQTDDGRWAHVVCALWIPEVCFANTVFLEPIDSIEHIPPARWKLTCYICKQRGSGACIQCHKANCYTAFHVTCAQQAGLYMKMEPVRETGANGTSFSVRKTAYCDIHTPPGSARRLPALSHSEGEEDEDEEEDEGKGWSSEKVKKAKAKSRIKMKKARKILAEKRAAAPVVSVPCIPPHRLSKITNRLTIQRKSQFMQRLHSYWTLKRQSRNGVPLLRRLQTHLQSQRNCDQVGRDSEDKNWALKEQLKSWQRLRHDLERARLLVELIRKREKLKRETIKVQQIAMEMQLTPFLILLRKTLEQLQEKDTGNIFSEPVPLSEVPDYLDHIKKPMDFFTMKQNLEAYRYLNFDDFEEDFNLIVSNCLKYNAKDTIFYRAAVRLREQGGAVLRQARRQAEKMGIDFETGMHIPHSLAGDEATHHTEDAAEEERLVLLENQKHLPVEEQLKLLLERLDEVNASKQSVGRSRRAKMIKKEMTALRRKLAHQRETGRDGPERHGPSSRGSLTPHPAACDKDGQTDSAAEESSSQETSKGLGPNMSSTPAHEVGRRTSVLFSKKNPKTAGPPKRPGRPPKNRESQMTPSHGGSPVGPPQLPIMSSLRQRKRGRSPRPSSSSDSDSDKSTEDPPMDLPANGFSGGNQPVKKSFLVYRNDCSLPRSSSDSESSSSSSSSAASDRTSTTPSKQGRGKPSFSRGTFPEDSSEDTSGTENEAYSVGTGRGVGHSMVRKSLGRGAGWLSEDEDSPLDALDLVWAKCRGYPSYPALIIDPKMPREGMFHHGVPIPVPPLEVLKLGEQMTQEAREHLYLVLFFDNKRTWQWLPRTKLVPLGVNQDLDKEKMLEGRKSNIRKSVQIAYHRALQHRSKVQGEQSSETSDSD
Kind of assay: Inhibition of human BRPF1 (627 to 740 residues) expressed in Escherichia coli BL21 after 1 hr by BROMOscan assay.

For assay [1], the target named is T2, Bromodomain-containing protein 9 (Homo sapiens, UniProt Q9H8M2).
T2 sequence (Q9H8M2 whole entry): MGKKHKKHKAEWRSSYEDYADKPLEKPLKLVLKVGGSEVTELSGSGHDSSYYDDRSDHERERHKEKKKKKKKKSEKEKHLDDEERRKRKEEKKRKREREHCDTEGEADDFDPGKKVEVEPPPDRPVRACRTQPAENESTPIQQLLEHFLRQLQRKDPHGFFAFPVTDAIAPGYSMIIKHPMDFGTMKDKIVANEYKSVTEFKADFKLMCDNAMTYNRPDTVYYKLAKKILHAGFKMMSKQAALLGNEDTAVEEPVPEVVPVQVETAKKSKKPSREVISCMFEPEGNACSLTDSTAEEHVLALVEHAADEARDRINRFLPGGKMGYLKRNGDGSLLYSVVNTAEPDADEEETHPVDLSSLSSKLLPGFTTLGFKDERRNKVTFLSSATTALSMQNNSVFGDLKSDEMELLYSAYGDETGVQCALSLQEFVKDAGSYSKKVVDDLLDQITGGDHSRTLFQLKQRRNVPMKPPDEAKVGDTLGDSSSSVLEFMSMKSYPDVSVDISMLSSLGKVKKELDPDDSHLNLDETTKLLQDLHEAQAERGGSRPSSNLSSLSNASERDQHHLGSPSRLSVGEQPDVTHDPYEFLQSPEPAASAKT
Description: Inhibition of human BRD9 (130 to 259 residues) expressed in Escherichia coli BL21 after 1 hr by BROMOscan assay

The target of assay [2] is T3, Bromodomain-containing protein 1 (Homo sapiens, UniProt O95696).
T3 sequence (O95696 whole entry): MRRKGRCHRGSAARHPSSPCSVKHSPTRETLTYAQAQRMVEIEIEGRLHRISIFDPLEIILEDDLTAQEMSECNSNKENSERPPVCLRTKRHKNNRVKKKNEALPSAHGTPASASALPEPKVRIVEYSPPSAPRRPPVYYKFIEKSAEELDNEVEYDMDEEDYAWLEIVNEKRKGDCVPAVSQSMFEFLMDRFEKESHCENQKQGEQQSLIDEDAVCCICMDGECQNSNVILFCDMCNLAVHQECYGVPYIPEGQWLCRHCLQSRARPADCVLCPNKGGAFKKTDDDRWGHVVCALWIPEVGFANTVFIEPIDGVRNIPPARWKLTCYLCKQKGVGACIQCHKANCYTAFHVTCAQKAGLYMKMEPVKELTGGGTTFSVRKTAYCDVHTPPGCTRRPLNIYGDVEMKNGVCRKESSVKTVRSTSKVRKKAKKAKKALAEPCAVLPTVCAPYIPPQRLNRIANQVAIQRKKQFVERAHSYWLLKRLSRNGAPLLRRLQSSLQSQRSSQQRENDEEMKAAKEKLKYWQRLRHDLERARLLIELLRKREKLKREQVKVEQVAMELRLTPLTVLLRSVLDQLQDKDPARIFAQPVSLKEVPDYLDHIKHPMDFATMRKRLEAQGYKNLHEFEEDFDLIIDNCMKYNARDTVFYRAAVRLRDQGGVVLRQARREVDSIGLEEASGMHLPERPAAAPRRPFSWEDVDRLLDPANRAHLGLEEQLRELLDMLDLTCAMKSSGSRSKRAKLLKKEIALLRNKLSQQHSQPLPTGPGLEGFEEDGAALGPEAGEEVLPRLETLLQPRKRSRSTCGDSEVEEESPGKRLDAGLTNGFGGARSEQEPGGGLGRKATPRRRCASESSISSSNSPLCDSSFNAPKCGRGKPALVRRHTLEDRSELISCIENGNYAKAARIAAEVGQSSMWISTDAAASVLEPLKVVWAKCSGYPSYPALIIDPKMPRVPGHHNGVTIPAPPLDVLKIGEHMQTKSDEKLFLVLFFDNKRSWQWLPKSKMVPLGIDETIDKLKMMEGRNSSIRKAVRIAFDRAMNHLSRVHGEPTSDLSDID
Kind of assay: Inhibition of human BRPF2 (556 to 688 residues) expressed in Escherichia coli BL21 after 1 hr by BROMOscan assay.

For `Cn1c(=O)ccc2cc(S(=O)(=O)Nc3ccccc3)ccc21`, the IC50 against Peregrin is 1000 nM; in assay [1] it was 9800 nM; in assay [2], 7800 nM.

Take `COc1cc(C#N)ccc1S(=O)(=O)Nc1ccc2c(c1)cc(C)c(=O)n2C`: the IC50 turned out to be 3.1 nM at Peregrin, 520 nM in assay [1] and 46 nM in assay [2].

For the compound `COc1cc(C#N)ccc1S(=O)(=O)Nc1ccc2c(c1)cc(C(C)C)c(=O)n2C`, the IC50 was 170 nM against Peregrin, 9300 nM in assay [1] and 3300 nM in assay [2].
